In US5948786A, “Piperidinylpyrimidine derivatives” (Sumitomo Pharmaceuticals Company, Limited, priority 1996, dated 1999):

Test system: TNF α production from mouse macrophages
Test: Inhibitory activity of compound on TNF α Production from mouse macrophages (LPS-induced PEC's)
Format: cell-based
Details: Macrophage, LPS 10 μg/ml, 18 hours
Protocol: BALB/c mice (female, 5-7 weeks old, Charles River Japan, Tokyo, Japan) were injected i.p. with 1 ml of 2.4% thioglycollate broth. After 4 days, the mice were sacrificed. Peritoneal exudated cells (PEC's) were collected from the peritoneal cavity by washing with minimum essential medium (MEM, Handai biseibutubyou kenkyukai, Osaka, Japan) containing 5 U/ml heparin, 1% fetal bovine serum (FBS, Filtron, Victoria, Australia) and antibiotics. The cells were washed two times with MEM, suspended with MEM containing 10% FBS (complete MEM, cMEM) and seeded into 96-well culture plates (Costar, Cambridge, Mass., USA) at 2×10^5 cells/well. The cells were incubated for 1 hour at 37° C. in a humidified 5% CO2 incubator and washed two times to remove non-adherent cells.
TNF α was induced by 10 μg/ml of LPS (E. coli O111B4, DIFCO, Detroit, Mich., USA) the cells were cultured for 18 hours at 37° C. A compound of the present invention was dissolved in DMSO and added to the culture simultaneously with LPS. The final DMSO concentration was below 0.1%. The TNF α concentration in supernatant and recombinant mouse TNF α standard (rm-TNF α, Genzyme, Mass., USA) were incubated overnight at 4° C. in a 96-well plate coated with anti-mouse TNF α monoclonal antibody (PharMingen, San Diego, Calif., USA) that previously had been blocked with 10% FBS. Each well of the plate first was incubated at room temperature with biotinylated anti-mouse TNF α polyclonal antibodies (PharMingen) for 45 minutes, then with peroxidase-conjugated streptavidin (Kirkegaard & Perry Laboratories Inc., Gaitherburg, Md., USA) for 30 minutes. After each incubation, the plate was washed 4 to 8 times with PBS containing 0.2% Tween 20. TMB (Kirkegaard & Perry Laboratories Inc.) was the peroxidase substrate used and, the absorbance of each well was quantified at 450 nm by a microplatereader (Molecular Devices Corp., CA, USA). TNF α levels in the supernatant were quantified with rm-TNF α as the standard.

Structure (SMILES) | inhibition at 30 µM
COc1ccc(-c2cc(C3CCN(C(=O)c4ccccc4)CC3)nc(N)n2)cc1 [Example 5, 2-Amino-4-(1-benzoyl-4-piperidinyl)-6-(4-methoxyphenyl)pyrimidine] | 57%
Nc1nc(-c2ccc(Cl)cc2)cc(C2CCN(C(=O)c3ccccc3)CC2)n1 [Example 6, 2-Amino-4-(1-benzoyl-4-piperidinyl)-6-(4-chlorophenyl)pyrimidine] | 78%
Nc1nc(Cc2ccc(Cl)cc2)cc(C2CCN(C(=O)c3ccccc3)CC2)n1 [Example 7, 2-Amino-4-(1-benzoyl-4-piperidinyl)-6-(4-chlorophenylmethyl)pyrimidine] | 58%
CCC(=O)N1CCC(c2nc(N)nc3ccccc23)CC1 [Example 16] | 4%
CCCC(=O)N1CCC(c2nc(N)nc3ccccc23)CC1 [Example 17] | 8%
CCCCCC(=O)N1CCC(c2nc(N)nc3ccccc23)CC1 [Example 19] | 10%
CCCCCCC(=O)N1CCC(c2nc(N)nc3ccccc23)CC1 [Example 20] | 63%
CCCCCCCC(=O)N1CCC(c2nc(N)nc3ccccc23)CC1 [Example 21] | 74%
CCCCCCCCC(=O)N1CCC(c2nc(N)nc3ccccc23)CC1 [Example 22] | 64%
CCCCCCCCCC(=O)N1CCC(c2nc(N)nc3ccccc23)CC1 [Example 23] | 67%
CCCCCCCCCCC(=O)N1CCC(c2nc(N)nc3ccccc23)CC1 [Example 24] | 70%
CC(C)(C)C(=O)N1CCC(c2nc(N)nc3ccccc23)CC1 [Example 26] | 19%
CC(C)(C)OC(=O)NCCCCCCC(=O)N1CCC(c2nc(N)nc3ccccc23)CC1 [Example 27, 2-amino-4-[1-(7-t-butoxycarbonylaminoheptanoyl)-4-piperidinyl]quinazoline] | 95%
CC(C)(C)OC(=O)NCCCCCCCC(=O)N1CCC(c2nc(N)nc3ccccc23)CC1 [Example 28, 2-amino-4-[1-(8-t-butoxycarbonylaminooctanoyl)-4-piperidinyl]quinazoline] | 100%
CC(C)(C)OC(=O)NCCCCCCCCCCC(=O)N1CCC(c2nc(N)nc3ccccc23)CC1 [Example 29, 2-amino-4-[1-(11-t-butoxycarbonylaminoundecanoyl)-4-piperidinyl]quinazoline] | 100%
Nc1nc(C2CCN(C(=O)CCCCCCCCCO)CC2)c2ccccc2n1 [Example 30] | 64%
COc1ccccc1C(=O)N1CCC(c2nc(N)nc3ccccc23)CC1 [Example 32] | 30%
COc1cccc(C(=O)N2CCC(c3nc(N)nc4ccccc34)CC2)c1 [Example 33] | 18%
Nc1nc(C2CCN(C(=O)c3ccccc3Cl)CC2)c2ccccc2n1 [Example 35] | 72%
Nc1nc(C2CCN(C(=O)c3cccc(Cl)c3)CC2)c2ccccc2n1 [Example 36] | 42%
Nc1nc(C2CCN(C(=O)c3ccc(Cl)cc3)CC2)c2ccccc2n1 [Example 37] | 4%
Nc1nc(C2CCN(C(=O)c3ccccc3[N+](=O)[O-])CC2)c2ccccc2n1 [Example 38] | 30%
Nc1nc(C2CCN(C(=O)c3cccc([N+](=O)[O-])c3)CC2)c2ccccc2n1 [Example 39] | 12%
Nc1nc(C2CCN(C(=O)c3ccc([N+](=O)[O-])cc3)CC2)c2ccccc2n1 [Example 40] | 15%
Nc1nc(C2CCN(C(=O)c3cccnc3)CC2)c2ccccc2n1 [Example 50] | 18%
Nc1nc(C2CCN(C(=O)c3ccncc3)CC2)c2ccccc2n1 [Example 51] | 28%
COc1cccc(C(=O)N2CCC(c3nc(N)nc4ccccc34)CC2)c1OC [Example 52] | 20%
COc1ccc(C(=O)N2CCC(c3nc(N)nc4ccccc34)CC2)c(OC)c1 [Example 53] | 54%
COc1ccc(C(=O)N2CCC(c3nc(N)nc4ccccc34)CC2)cc1OC [Example 56] | -28%
